Data published in article PMC10653547, “Synergistic effect of two antimicrobial peptides, BP203 and MAP-0403 J-2 with conventional antibiotics against colistin-resistant Escherichia coli and Klebsiella pneumoniae clinical isolates” (PLOS ONE, 2023).

Legend:
[1] = tested on: colistin-resistant E. coli clinical isolates; assay: Disk diffusion antimicrobial susceptibility testing (CLSI); type: cell-based, Escherichia coli
Experimental: (§1) Ten non-duplicate clinical isolates of colistin-resistant E. coli (EC) and ten non-duplicate clinical isolates of colistin-resistant K. pneumoniae (KP) were obtained from the bacterial repository of the Division of Infectious Diseases and Tropical Medicine, Department of Medicine, Faculty of Medicine Siriraj Hospital, Mahidol University. The species identification was conducted through standard biochemical tests. Antimicrobial susceptibility testing was carried out using the disk diffusion method following CLSI guidelines. Additionally, the assessment of colistin resistance in all isolates was performed by broth microdilution following CLSI recommendations. […] The amino acid sequences of BP203 and MAP-0403 J-2 were retrieved from previous studies. These peptides are BP100 and MAP-0403 analogs, respectively. […] Antibiotic disks and defibrinated sheep blood were obtained from Oxoid (Basingstoke, UK). All culture media were purchased from Becton Dickinson (Frankin Lakes, NJ, USA). All chemicals were obtained from Sigma-Aldrich (St. Louis, MO, USA).

[2] = tested on: colistin-resistant K. pneumoniae clinical isolates; assay: as above; type: cell-based, Klebsiella pneumoniae
Experimental: as §1

[3] = tested on: colistin-resistant E. coli clinical isolates; assay: Checkerboard assay for synergy testing; type: cell-based, Escherichia coli; conditions: checkerboard Ceftazidime+MAP-0403 J-2
Experimental: (§2) The synergistic activities of various two-antimicrobial combinations against colistin-resistant E. coli and K. pneumoniae isolates were evaluated using the checkerboard assay, which was performed in 96-well plates. […] Two-fold serial dilutions of peptides and antibiotics were independently prepared in CAMHB. Afterward, a mixture of different concentrations of the antibiotics and peptides was added to the wells of the microplates. Antibiotics and peptides were also dispended alone in the first row and the first column, respectively. Bacterial inoculum was added to the 96-well plate to achieve a final concentration of 5 × 10^5 CFU/mL. Then, plates were incubated at 37 °C for 20–24 h. MICs were recorded as the minimum concentration of antimicrobial agents without bacterial growth. The interaction between the antimicrobials was determined by calculating the fractional inhibitory concentration index (FICI) according to the formula: FICI = FIC(drug A) + FIC(drug B), where FIC = the MIC of the drug when in the combination/MIC of drug tested individually.

[4] = tested on: colistin-resistant K. pneumoniae clinical isolates; assay: Checkerboard assay for synergy testing; type: cell-based, Klebsiella pneumoniae; conditions: checkerboard Ceftazidime+MAP-0403 J-2
Experimental: as §2

SMILES: CC(C)(O/N=C(\C(=O)N[C@@H]1C(=O)N2C(C(=O)[O-])=C(C[n+]3ccccc3)CS[C@H]12)c1csc(N)n1)C(=O)O [CAZ, ceftazidime]
- Interpreted results of disk diffusion ([1]; EC-01): R
- Interpreted results of disk diffusion ([1]; EC-02): I
- Interpreted results of disk diffusion ([1]; EC-03): R
- Interpreted results of disk diffusion ([1]; EC-04): R
- Interpreted results of disk diffusion ([1]; EC-05): S
- Interpreted results of disk diffusion ([1]; EC-06): R
- Interpreted results of disk diffusion ([1]; EC-07): I
- Interpreted results of disk diffusion ([1]; EC-08): S
- Interpreted results of disk diffusion ([1]; EC-09): I
- Interpreted results of disk diffusion ([1]; EC-10): S
- %Resistance ([1]; ten E. coli isolates, disk diffusion): 40%
- Interpreted results of disk diffusion ([2]; KP-01): R
- Interpreted results of disk diffusion ([2]; KP-02): R
- Interpreted results of disk diffusion ([2]; KP-03): R
- Interpreted results of disk diffusion ([2]; KP-04): R
- Interpreted results of disk diffusion ([2]; KP-05): R
- Interpreted results of disk diffusion ([2]; KP-06): R
- Interpreted results of disk diffusion ([2]; KP-07): R
- Interpreted results of disk diffusion ([2]; KP-08): R
- Interpreted results of disk diffusion ([2]; KP-09): R
- Interpreted results of disk diffusion ([2]; KP-10): R
- %Resistance ([2]; ten K. pneumoniae isolates, disk diffusion): 100%
- MIC alone ([3]; isolate EC-01): 8 mg/L
- MIC combination ([3]; isolate EC-01): 0.5 mg/L
- MIC alone ([3]; isolate EC-02): 16 mg/L
- MIC combination ([3]; isolate EC-02): 4 mg/L
- MIC alone ([3]; isolate EC-03): 16 mg/L
- MIC combination ([3]; isolate EC-03): 1 mg/L
- MIC alone ([3]; isolate EC-04): 4 mg/L
- MIC combination ([3]; isolate EC-04): 1 mg/L
- MIC alone ([3]; isolate EC-05): 1 mg/L
- MIC combination ([3]; isolate EC-05): 0.0625 mg/L
- MIC alone ([3]; isolate EC-06): 16 mg/L
- MIC combination ([3]; isolate EC-06): 4 mg/L
- MIC alone ([3]; isolate EC-07): 16 mg/L
- MIC combination ([3]; isolate EC-07): 2 mg/L
- MIC alone ([3]; isolate EC-08): 1 mg/L
- MIC combination ([3]; isolate EC-08): 0.25 mg/L
- MIC alone ([3]; isolate EC-09): 32 mg/L
- MIC combination ([3]; isolate EC-09): 4 mg/L
- MIC alone ([3]; isolate EC-10): 16 mg/L
- MIC combination ([3]; isolate EC-10): 2 mg/L
- MIC combination ([4]; isolate KP-01): 16 mg/L
- MIC combination ([4]; isolate KP-02): 16 mg/L
- MIC combination ([4]; isolate KP-03): 512 mg/L
- MIC combination ([4]; isolate KP-04): 512 mg/L
- MIC combination ([4]; isolate KP-05): 512 mg/L
- MIC combination ([4]; isolate KP-06): 32 mg/L
- MIC combination ([4]; isolate KP-07): 256 mg/L
- MIC combination ([4]; isolate KP-08): 512 mg/L
- MIC combination ([4]; isolate KP-09): 512 mg/L
- MIC combination ([4]; isolate KP-10): 32 mg/L
